The source made the active and inactive calls.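 How the source made its calls: active means EC50 at or below 10 µM; inactive means EC50 above 10 µM.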
System: CHO NFAT-BLA reporter, FRET beta-lactamase activation counterscreen
Assay: nonspecific beta-lactamase reporter activation – CHO NFAT-bla cells, FRET readout, counter-screen for GALR2 agonist project, dose response (AID 1228)

SMILES | EC50
Cc1ccc2nsnc2c1NC(=O)c1ccc(-c2cc(Cl)ccc2Cl)o1 | > 55.7 µM (inactive)
CCOc1ccc(Br)cc1C(=O)Nc1ccc(C(=O)NCC(C)C)cc1 | > 55.7 µM (inactive)
Cc1cc(C)c2nc(NNC(=O)c3ccc(S(=O)(=O)N4CCCC(C)C4)cc3)sc2c1 (stereo unspecified) | > 55.7 µM (inactive)
Cc1cc(C)c2nc(NNC(=O)c3ccc(S(=O)(=O)N4CC(C)CC(C)C4)cc3)sc2c1 (stereo unspecified) | > 55.7 µM (inactive)
COc1cc2c3cc1Oc1cc(ccc1O)C[C@@H]1c4c(cc(OC)c(O)c4Oc4ccc(cc4)C[C@H]3N(C)CC2)CCN1C | > 55.7 µM (inactive)
CCCOc1ccc(C(=O)C(CCC(CNCC)C(=O)c2ccc(OCCC)cc2)CNCC)cc1 (stereo unspecified) | > 55.7 µM (inactive)
CC1=C/C(=N\OS(=O)(=O)c2ccccc2)C(C(C)C)=CC1=O | > 55.7 µM (inactive)
Cc1cccc2sc(NNC(=O)c3ccc(S(=O)(=O)N4CC(C)CC(C)C4)cc3)nc12 (stereo unspecified) | > 55.7 µM (inactive)
Cc1c2ccncc2c(C)c2c1[nH]c1ccccc12 | > 55.7 µM (inactive)
C=CCNC(=O)/C(C#N)=C/c1cn(-c2ccccc2)nc1-c1cccs1 | > 55.7 µM (inactive)
Cc1cccc2sc(NNC(=O)c3ccc(S(=O)(=O)N4CCCC(C)C4)cc3)nc12 (stereo unspecified) | > 55.7 µM (inactive)

Reference: PubChem BioAssay AID1228 (The Scripps Research Institute Molecular Screening Center, 2008)
